Results published in PMC7408072 (Pharmaceutics, 2020).
Peptide text beside a SMILES is read from it. * marks the point of attachment. 5TAMRA = CN(C)c1ccc2c(c1)Oc1cc(N(C)C)ccc1C21OC(=O)c2cc(C(=O)*)ccc21

What was measured:
[1] = test system: primary bovine brain capillary endothelial cells co-cultured with primary rat astrocytes; assay: Peptide stability on the in vitro bovine BBB model; format: in vitro ADME; conditions: FBS-free differentiation medium, 50 µM peptide, bovine BCEC/rat astrocyte co-culture, 37 °C, 90 rpm, HPLC C18, 220 and 543 nm, mean ± SD, N = 3
Method: BCECs co-cultured with rat astrocytes: a batch of capillary suspension was thawed and the DMSO removed by centrifugation in DMEM complete at 500× g for 5 min at room temperature. The pellet was re-suspended in DMEM complete and transferred to a culture flask (T75) coated with collagen and fibronectin (both 0.01 mg/mL in PBS). The capillary fragments were allowed to settle for 4–6 h in a humidified incubator (37 °C, 10% CO2) before changing the media to growth medium(+) (DMEM complete/ACM (1:1) with 125 µg/mL heparin) supplemented with 4 µg/mL pyromycin. On day 3, the BCECs received fresh growth medium(+) and rat astrocytes were seeded on the bottom of collagen and fibronectin coated (both 0.1 mg/mL in PBS) Transwell® plate permeable supports (Corning, Corning, NY, USA; 120,000 cells/1.12 cm^2 support with 0.4 µm pore size) in DMEM complete (37 °C, 10% CO2). On day 5, the media in the Transwell® plate was replaced by growth medium(-) (DMEM complete with 125 µg/mL heparin) and the endothelial cells detached from the flask using trypsin-EDTA (Thermo Fischer Scientific, Bedford, MA, USA). The remaining trypsin-EDTA was removed by centrifugation in DMEM complete at 1070× g for 5 min at room temperature. The endothelial cells were re-suspended in growth medium(-) and seeded on the apical side of the Transwell® plate permeable supports (100,000 cells/support). On day 8, the medium was changed to differentiation medium (DMEM containing 50 mM N-Tris-(hydroxymethyl)methyl-2-aminoethanesulfonic acid (TES), 10% FBS, 1% non-essential amino acids, 100 µg/mL penicillin/streptomycin (100 U/mL), 2 mM L-glutamine, 312.5 µM 8-(4-CPT)cyclic adenosine monophosphate, 0.5 µM dexamethasone, and 17.5 µM RO-20-1724). On day 11, the bovine BBB model was ready for use as evident by the measured transendothelial electrical resistance (TEER) values for each filter prior to experimental start.
Stability on the in vitro bovine BBB model: the differentiation medium was gently aspirated from the BCEC monolayers and replaced with 300 and 600 µL of 37 °C FBS-free differentiation medium containing 50 µM peptide on the luminal and abluminal side, respectively. The cells were incubated at 37 °C with horizontal shaking (90 rpm) for 4 h. Samples (10 µL) were withdrawn at 0, 10, 20, 30, 45, 60, 120, 180, and 240 min and two volumes of ice-cold ACN were immediately added prior to analysis by HPLC using an AdvanceBio Peptide Map column (C18, 4.6 × 150 mm, 2.7 µm particle size; Agilent, Glostrup, Denmark) connected to a Prominence system (LC-20 AD, SIL20 AC, SPD-M20A PDA, and CTO-20A modules; Shimadzu, Kyoto, Japan). Mobile phase A consisted of 95% ultrapure water and 5% ACN with 0.1% TFA and mobile phase B of 95% ACN and 5% ultrapure water with 0.1% TFA. […]

[2] = Peptide stability in serum-containing cell media; format: in vitro ADME, bovine; conditions: differentiation medium with 10% FBS, 37 °C, 100 µM peptide, urea/TCA-acetone protein precipitation, UPLC C18, UV 214 and 498 nm, mean ± SD, N = 2
Method: Samples (20 µL) were withdrawn at 0, 15, 30, 60, 120, 180, and 240 min. At room temperature, 50 µL of 6 M urea was added for 10 min to denature plasma proteins. To precipitate plasma proteins, 50 µL of 20% (w/v) trichloroacetic acid in acetone was added and the sample incubated at −20 °C for 10 min. The samples were spun down at 10,000× g for 5 min at 5 °C. The acetone phase containing the TAMRA-peptides was filtered (pore size 0.22 µm) prior to analysis by UPLC using a Waters Acquity system with a C18 BEH reverse phase column (BEH C18 column, 2.1 mm × 50 mm × 1.7 µm). Mobile phase A consisted of 95% ultrapure water and 5% acetonitrile (ACN) with 0.1% trifluoroacetic acid (TFA) and mobile phase B of 95% ACN and 5% ultrapure water with 0.1% TFA. A linear gradient was used (min/%B): 0/5%, 12/45%, 12.1/100%, 13/100%, 13.1/5%, 15/5%, with a flow rate of 0.45 mL/min over 15 min with UV detection at 214 and 498 nm. Lower limits of detection are 6.2 µM for TAMRA-NR2B9c, 0.8 µM for TAMRA-Tat, 1.6 µM for TAMRA-Tat-NR2B9c, and 1.6 µM for TAMRA-Tat-N-dimer.

[3] = test system: bovine BCECs co-cultured with rat astrocytes; assay: Peptide uptake into endothelial cells and astrocytes by confocal microscopy after fixation (bovine BBB model); format: cell-based; conditions: fixed cells; for peptide uptake in the astrocytes, 3 h: 100 µM peptide applied luminally; for peptide uptake in the astrocytes, 3 h / peptide uptake in the endothelial cells, 3 h: TAMRA fluorescence, confocal microscopy; for peptide uptake in the astrocytes, 15 min / peptide uptake in the endothelial cells, 15 min / peptide uptake in the endothelial cells, 3 h: 100 µM peptide; for peptide uptake in the astrocytes, 15 min / peptide uptake in the endothelial cells, 15 min: confocal microscopy (Figure S3)
Method: […] TEER was measured at room temperature using an Endohm 12 cup (World Precision Instruments, Sarasota, FL, USA) connected to a Millicell-ERS device (Millipore, Bedford, MA, USA). TEER was measured before application of the peptides and after each experiment. The bovine model had initial TEER values ranging from 771 to 1332 Ω·cm^2, whereas the mouse model had initial TEER values ranging from 136 to 217 Ω·cm^2.
To visualize the TAMRA-peptide taken up by the endothelial cells and astrocytes, the remaining filters (one per batch) from the permeation study using the in vitro bovine BBB model were prepared for confocal microscopy. After removal of the peptide solutions, the cells were fixed with 3% paraformaldehyde in PBS for 15 min at room temperature with horizontal shaking (90 rpm). The cells were washed thrice with PBS prior to permeabilization in 0.1% Triton X-100 in PBS for 5 min and blocking in 2% BSA in PBS for 30 min at room temperature with horizontal shaking (90 rpm). The filter inserts were cut out, divided into smaller pieces, and transferred to a 48-well plate to stain zonula ocludens-1 (ZO-1) in the BCECs and F-actin in the astrocytes. Filter pieces with BCECs facing upwards were incubated with a primary antibody directed against ZO-1 (1:100 in PBS with 2% BSA; Thermo Fischer Scientific, Bedford, MA, USA, no. 617300) for 2 h at room temperature. Subsequently, the filters were washed thrice for 5 min in PBS with 2% BSA prior to 30 min incubation with an Alexa-488-conjugated secondary antibody (1:100 in PBS with 2% BSA; Thermo Fischer Scientific, Bedford, MA, USA, no. A11008). Filter pieces with astrocytes facing upwards were incubated with Alexa-488-conjugated phalloidin (1:133 in PBS with 2% BSA; Thermo Fischer Scientific, Bedford, MA, USA) for 30 min at room temperature and washed thrice for 5 min in PBS with 2% BSA. The filter pieces were mounted on glass slides under coverslips using Immu-Mount™ mounting media and imaged using single wavelength excitation a Zeiss 510 laser-scanning confocal microscope (Carl Zeiss, Jena, Germany).

SMILES | % remaining after 4 h of luminal incubation on the BCECs [1] | % of the initial concentration remaining after 4 h of incubation in serum-supplemented cell media [2] | peptide uptake in the astrocytes, 3 h [3] | peptide uptake in the astrocytes, 15 min [3] | peptide uptake in the endothelial cells, 15 min [3] | peptide uptake in the endothelial cells, 3 h [3]
CC[C@H](C)[C@H](NC(=O)[C@H](CO)NC(=O)[C@H](CO)NC(=O)[C@H](CC(C)C)NC(=O)[C@H](CCCCN)NC(=O)[C@H](CCCNC(=N)N)NC(=O)[C@H](CCCNC(=N)N)NC(=O)[C@H](CCCNC(=N)N)NC(=O)[C@H](CCC(N)=O)NC(=O)[C@H](CCCNC(=N)N)NC(=O)[C@H](CCCNC(=N)N)NC(=O)[C@H](CCCCN)NC(=O)[C@H](CCCCN)NC(=O)[C@H](CCCNC(=N)N)NC(=O)CNC(=O)[C@H](Cc1ccc(O)cc1)NC(=O)c1ccc2c(c1)C(=O)OC21c2ccc(N(C)C)cc2Oc2cc(N(C)C)ccc21)C(=O)N[C@@H](CCC(=O)O)C(=O)N[C@@H](CO)C(=O)N[C@@H](CC(=O)O)C(=O)N[C@H](C(=O)O)C(C)C [TAMRA-Tat-NR2B9c] (5TAMRA-YGRKKRRQRRRKLSSIESDV-OH) | 58.6% ± 13.1% | 34.3% ± 1.7% | observed in both cell types | uptake | uptake | observed in both cell types
CC[C@H](C)[C@H](NC(=O)CCOCCOCCN(CCOCCOCCC(=O)N[C@H](C(=O)N[C@@H](CCC(=O)O)C(=O)N[C@H](C(=O)N[C@@H](CC(=O)O)C(=O)N[C@H](C(=O)O)C(C)C)[C@@H](C)O)[C@@H](C)CC)C(=O)[C@H](CCCNC(=N)N)NC(=O)[C@H](CCCNC(=N)N)NC(=O)[C@H](CCCNC(=N)N)NC(=O)[C@H](CCC(N)=O)NC(=O)[C@H](CCCNC(=N)N)NC(=O)[C@H](CCCNC(=N)N)NC(=O)[C@H](CCCCN)NC(=O)[C@H](CCCCN)NC(=O)[C@H](CCCNC(=N)N)NC(=O)CNC(=O)[C@H](Cc1ccc(O)cc1)NC(=O)c1ccc2c(c1)C(=O)OC21c2ccc(N(C)C)cc2Oc2cc(N(C)C)ccc21)C(=O)N[C@@H](CCC(=O)O)C(=O)N[C@H](C(=O)N[C@@H](CC(=O)O)C(=O)N[C@H](C(=O)O)C(C)C)[C@@H](C)O [TAMRA-Tat-N-dimer] | 85.0% ± 6.0% | 88.1% ± 1.8% | not in the astrocytes | not in the astrocytes | Minor uptake | low level
CN(C)c1ccc2c(c1)Oc1cc(N(C)C)ccc1C21OC(=O)c2cc(C(=O)N[C@@H](Cc3ccc(O)cc3)C(=O)NCC(=O)N[C@@H](CCCNC(=N)N)C(=O)N[C@@H](CCCCN)C(=O)N[C@@H](CCCCN)C(=O)N[C@@H](CCCNC(=N)N)C(=O)N[C@@H](CCCNC(=N)N)C(=O)N[C@@H](CCC(N)=O)C(=O)N[C@@H](CCCNC(=N)N)C(=O)N[C@@H](CCCNC(=N)N)C(=O)N[C@@H](CCCNC(=N)N)C(=O)O)ccc21 [TAMRA-Tat] | 76.9% ± 5.6% | 56.0% ± 8.9% | observed in both cell types | uptake | uptake | observed in both cell types
CC[C@H](C)[C@H](NC(=O)[C@H](CO)NC(=O)[C@H](CO)NC(=O)[C@H](CC(C)C)NC(=O)[C@H](CCCCN)NC(=O)c1ccc2c(c1)C(=O)OC21c2ccc(N(C)C)cc2Oc2cc(N(C)C)ccc21)C(=O)N[C@@H](CCC(=O)O)C(=O)N[C@@H](CO)C(=O)N[C@@H](CC(=O)O)C(=O)N[C@H](C(=O)O)C(C)C [TAMRA-NR2B9c] (5TAMRA-KLSSIESDV-OH) | 95.7% ± 1.6% | 92.0% ± 12.6% | not observed | – | – | not observed
